In data set [1] the test system is Staphylococcus aureus CJ145. Kind of data set: Susceptibility of β-lactamase producing bacterial strains to β-lactam antibiotics in 1:1 combination (Table II). It counts as cell-based.
Data set [2] has as its system Escherischia coli HA58 (RTEM). Kind of data set: organism not typed. It counts as cell-based.
For data set [3], the system named is Staphylococcus aureus CJ9. Kind of data set: Susceptibility of β-lactamase producing bacterial strains to β-lactam antibiotics in 1:1 combination (Table II). It counts as cell-based.
Data set [4] concerns Klebsiella pneumoniae HE7. The description is as above. Format: cell-based.
A further data set relates to Proteus mirabilis HJ28. Described as above. Format: cell-based.
The conditions of data set [5]: as such or as hydrochloride; cited from earlier work.
A further data set has as its system β-lactamases. The following applies: well known; cited from earlier work.
[6] abbreviates: serial dilution in agar medium, inoculum 10^5 CFU, alone or in 1:1 combination (value of each partner), read-out: IC50.
The mark [7] stands for this setting: serial dilution in agar medium, inoculum 10^4 CFU, alone or in 1:1 combination (value of each partner), read-out: IC50.

Here are results for 4 compounds from patent US4594246A, “Pharmaceutically-acceptable amine salts of 6-β-halopenicillanic acids” (Leo Pharmaceutical Products, priority 1979, dated 1986).

Converted amounts (≈) assume the structure as drawn. Like-named read-outs stand apart in the source and are kept apart here.

`CC1(C)S[C@@H]2[C@H](/N=C/N3CCCCCC3)C(=O)N2[C@H]1C(=O)O` [Mecillinam]: the half-inhibitory concentration (IC50) is over 50 µg/mL in data set [1] (setting [6]) and over 25 µg/mL in data set [4] (setting [7]). For the same compound, the minimum inhibitory concentration (MIC) in data set [2] worked out at 1.3 µg/mL (≈ 3.99 µM); with Proteus mirabilis HJ28 (setting [7]) it was 6.3 µg/mL. In data set [3] (setting [6]), the MIC is over 50 µg/mL.
As for `CCN(CC)CCOC(=O)[C@@H]1N2C(=O)[C@@H](NC(=O)Cc3ccccc3)[C@H]2SC1(C)C` [Penethamate], in data set [5], the “concentration of benzylpenicillin in the udder” value was “rapid and high concentration of benzylpenicillin in the udder”; the “effect in the treatment of mastitis” value is given as “very effective in the treatment of mastitis”.
As to `CC1(C)S[C@@H]2[C@H](NC(=O)[C@H](N)c3ccccc3)C(=O)N2[C@H]1C(=O)O` [Ampicillin], the half-maximal inhibitory concentration (IC50) in data set [1] (setting [6]) is 1.6 µg/mL; in data set [4] (setting [7]) it was over 50 µg/mL. In addition, the minimum inhibitory concentration (MIC) was over 100 µg/mL in data set [2] and over 50 µg/mL in the data set on Proteus mirabilis HJ28 (setting [7]). The MIC in data set [3] (setting [6]) is 10 µg/mL.
In the case of `CC1(C)S[C@@H]2[C@H](NC(=O)Cc3ccccc3)C(=O)N2[C@H]1C(=O)O` [Benzylpenicillin], the figures for the 50% inhibitory concentration (IC50) in data set [1] and in data set [4] were 10 µg/mL and over 100 µg/mL, respectively. In addition, the minimum inhibitory concentration (MIC) (in data set [2]; with Proteus mirabilis HJ28) was over 100 µg/mL throughout. Further, in data set [3], the MIC was over 100 µg/mL. In the data set with β-lactamases, the “sensitivity to β-lactamases” value is listed as “very sensitive to β-lactamases”.
